Assay results taken from the NIST ThermoML archive (doi:10.1016/j.jct.2018.09.037).
“And” between values parts separate entries of the source, which are not always exact repeats. Equal entries are not always repeated.

Assays:
[1] = xn = mol fraction of the nth substance listed; conditions: 100 kPa, Liquid, Electromagnetic levitation / mass taken directly, volume taken from sample image
[2] = 100 kPa, Liquid, Electromagnetic levitation / mass taken directly, volume taken from sample image

[Pd] [palladium] + [Ni]
[1]
Conditions	mass density
1474 K, x1 = 0.25	8842 kg/m3
1480 K, x1 = 0.5	9527 kg/m3
1488 K, x1 = 0.5	9518 kg/m3
1510 K, x1 = 0.25	8793 kg/m3
1513 K, x1 = 0.5	9495 kg/m3
1549 K, x1 = 0.5	9457 kg/m3 and 9456 kg/m3
1551 K, x1 = 0.25	8757 kg/m3
1563 K, x1 = 0.75	10175 kg/m3
1586 K, x1 = 0.5	9422 kg/m3
1589 K, x1 = 0.75	10157 kg/m3
1598 K, x1 = 0.75	10153 kg/m3
1611 K, x1 = 0.25	8707 kg/m3
1619 K, x1 = 0.75	10117 kg/m3
1630 K, x1 = 0.5	9386 kg/m3
1653 K, x1 = 0.75	10089 kg/m3
1668 K, x1 = 0.25	8661 kg/m3
1695 K, x1 = 0.5	9341 kg/m3
1701 K, x1 = 0.75	10023 kg/m3
1757 K, x1 = 0.25	8586 kg/m3
1770 K, x1 = 0.5	9275 kg/m3
1774 K, x1 = 0.75	9966 kg/m3
1790 K, x1 = 1	10670 kg/m3
1795 K, x1 = 1	10672 kg/m3
1796 K, x1 = 1	10652 kg/m3
1802 K, x1 = 1	10686 kg/m3
1809 K, x1 = 1	10670 kg/m3
1820 K, x1 = 1	10677 kg/m3
1831 K, x1 = 1	10627 kg/m3
1835 K, x1 = 0.75	9929 kg/m3
1843 K, x1 = 1	10654 kg/m3
1856 K, x1 = 1	10601 kg/m3
1859 K, x1 = 0.5	9186 kg/m3
1870 K, x1 = 0.25	8503 kg/m3
1878 K, x1 = 1	10558 kg/m3
1889 K, x1 = 1	10592 kg/m3
1890 K, x1 = 1	10575 kg/m3
1905 K, x1 = 0.75	9819 kg/m3
1917 K, x1 = 1	10529 kg/m3
1935 K, x1 = 1	10478 kg/m3
1951 K, x1 = 1	10465 kg/m3

[Cu] [copper]
[2]
Conditions	mass density [kg/m3]
1371 K	7884
1385 K	7849
1400 K	7875
1432 K	7821
1435 K	7819
1437 K	7806
1441 K	7827
1456 K	7799
1460 K	7828
1461 K	7826
1489 K	7770
1507 K	7792
1510 K	7755
1578 K	7716
1624 K	7673
1625 K	7665
1679 K	7628

[Pd] [palladium] + [Cu]
[1]
Conditions	mass density [kg/m3]
1374 K, x1 = 0.25	8847
1421 K, x1 = 0.25	8805
1469 K, x1 = 0.25	8762
1523 K, x1 = 0.25	8711
1523 K, x1 = 0.5	9468
1532 K, x1 = 0.5	9456
1562 K, x1 = 0.5	9412
1590 K, x1 = 0.25	8663
1617 K, x1 = 0.5	9371
1653 K, x1 = 0.5	9329
1654 K, x1 = 0.75	9987
1662 K, x1 = 0.5	9329
1678 K, x1 = 0.75	9964
1685 K, x1 = 0.25	8540
1708 K, x1 = 0.75	9936
1718 K, x1 = 0.5	9281
1753 K, x1 = 0.75	9886
1766 K, x1 = 0.5	9221
1784 K, x1 = 0.75	9853
1790 K, x1 = 1	10670
1795 K, x1 = 1	10672
1796 K, x1 = 1	10652
1802 K, x1 = 1	10686
1805 K, x1 = 0.5	9118
1809 K, x1 = 1	10670
1820 K, x1 = 1	10677
1822 K, x1 = 0.75	9805
1831 K, x1 = 1	10627
1843 K, x1 = 1	10654
1856 K, x1 = 1	10601
1857 K, x1 = 0.75	9728
1878 K, x1 = 1	10558
1889 K, x1 = 1	10592
1890 K, x1 = 1	10575
1917 K, x1 = 1	10529
1935 K, x1 = 1	10478
1951 K, x1 = 1	10465

[Cu] [copper] + [Pd]
[1], x2 = 0
Conditions	mass density [kg/m3]
1371 K	7884
1385 K	7849
1400 K	7875
1432 K	7821
1435 K	7819
1437 K	7806
1441 K	7827
1456 K	7799
1460 K	7828
1461 K	7826
1489 K	7770
1507 K	7792
1510 K	7755
1578 K	7716
1624 K	7673
1625 K	7665
1679 K	7628

[Pd] [palladium]
[2]
Conditions	mass density [kg/m3]
1790 K	10670
1795 K	10672
1796 K	10652
1802 K	10686
1809 K	10670
1820 K	10677
1831 K	10627
1843 K	10654
1856 K	10601
1878 K	10558
1889 K	10592
1890 K	10575
1917 K	10529
1935 K	10478
1951 K	10465
